Here are results for eight molecules from publication PMC9544187 (Environmental Toxicology and Chemistry, 2022).

For series [1] the following is noted: mice, 78‐week carcinogenicity study; ref Hirano et al., [2018]; cited from earlier work.
The conditions of series [2]: Japanese people, n = 45; ref Ikenaka et al. ([2019]); cited from earlier work.
Series [3] can be described thus: Urinary concentrations of NNI compounds in wild raccoons. The format is in vivo, raccoon, Procyon lotor. Conditions: for GM ± SD urinary concentration / Percentile 25th urinary concentration / Percentile 50th urinary concentration / Percentile 75th urinary concentration / Percentile 95th urinary concentration / Percentile 100th urinary concentration: raccoon urine, n = 59.

For series [4] the following is noted: obtained from previous studies on humans; ref Ikenaka et al., [2019]; cited from earlier work.
The mark [5] stands for this setting: Raccoons: present study (n = 59).

The structures appear in SMILES notation. Read-outs that look alike come from different tables or passages of the source.

Regarding `CN/C(=N\[N+](=O)[O-])NCc1cnc(Cl)s1` [Clothianidin, clothianidin], the “no‐observable‐adverse‐effect level (NOAEL)” value in series [1] is given as about 50 mg/kg. Besides, in series [2], the “Maximum urinary neonicotinoid concentration” value is 15.06 µg/g creatinine and the “Mean urinary neonicotinoid concentration” value is 1.06 µg/g creatinine. For the same molecule, in series [3] (setting [5]), the “Mean urinary neonicotinoid concentration” value came to 0.81 µg/g creatinine. For the same molecule, in series [3] (creatinine‐adjusted), the “GM ± SD urinary concentration” value came to 0.26 ± 1.65 μg/g creatinine, the “Percentile 25th urinary concentration” value is on record as “<PQL”, the “Percentile 50th urinary concentration” value was 0.21 µg/g creatinine and the “Percentile 75th urinary concentration” value was determined as 0.43 µg/g creatinine. In addition, in series [3] (creatinine‐adjusted), the “Percentile 95th urinary concentration” value came out at 4 µg/g creatinine and the “Percentile 100th urinary concentration” value is recorded as 9.4 µg/g creatinine. Further, in series [3] (volume‐adjusted), the “GM ± SD urinary concentration” value came to 0.17 ± 0.89 µg/L, the “Percentile 25th urinary concentration” value is reported as “<PQL”, the “Percentile 50th urinary concentration” value is 0.14 µg/L and the “Percentile 75th urinary concentration” value stood at 0.45 µg/L. Also, in series [3] (volume‐adjusted), the “Percentile 95th urinary concentration” value is recorded as 2.62 µg/L and the “Percentile 100th urinary concentration” value is on record as 4.33 µg/L. Moreover, the “urinary excretion correction coefficient r” value in series [4] is recorded as 0.596.
Take `CCN(Cc1ccc(Cl)nc1)/C(=C/[N+](=O)[O-])NC` [Nitenpyram, nitenpyram]: in series [2], the “Maximum urinary neonicotinoid concentration” value was 1.25 µg/g creatinine and the “Mean urinary neonicotinoid concentration” value is 0.1 µg/g creatinine. Further, in series [3] (setting [5]), the “Maximum urinary neonicotinoid concentration” value came to 0 µg/g creatinine and the “Mean urinary neonicotinoid concentration” value was 0 µg/g creatinine. Moreover, in series [3] (creatinine‐adjusted), the “Percentile 25th urinary concentration” value is recorded as “<PQL”, the “Percentile 50th urinary concentration” value was “<PQL”, the “Percentile 75th urinary concentration” value is “<PQL” and the “Percentile 95th urinary concentration” value is listed as “<PQL”. For the same molecule, the “Percentile 100th urinary concentration” value in series [3] (creatinine‐adjusted) is listed as “<PQL”. Besides, in series [3] (volume‐adjusted), the “Percentile 25th urinary concentration” value is “<PQL”, the “Percentile 50th urinary concentration” value is “<PQL”, the “Percentile 75th urinary concentration” value is “<PQL” and the “Percentile 95th urinary concentration” value is recorded as “<PQL”. Besides, in series [3] (volume‐adjusted), the “Percentile 100th urinary concentration” value is on record as “<PQL”.
As for `CN1COCN(Cc2cnc(Cl)s2)/C1=N\[N+](=O)[O-]` [Thiamethoxam, thiamethoxam], in series [2], the “Maximum urinary neonicotinoid concentration” value is 2.11 µg/g creatinine and the “Mean urinary neonicotinoid concentration” value is 0.17 µg/g creatinine. For the same molecule, the “Mean urinary neonicotinoid concentration” value in series [3] (setting [5]) was determined as 0.29 µg/g creatinine. For the same molecule, in series [3] (creatinine‐adjusted), the “GM ± SD urinary concentration” value was determined as 0.10 ± 0.95 μg/g creatinine, the “Percentile 25th urinary concentration” value was “<PQL”, the “Percentile 50th urinary concentration” value is listed as “<PQL” and the “Percentile 75th urinary concentration” value is on record as “<PQL”. For the same molecule, in series [3] (creatinine‐adjusted), the “Percentile 95th urinary concentration” value is reported as 0.5 µg/g creatinine and the “Percentile 100th urinary concentration” value came out at 6.96 µg/g creatinine. Also, in series [3] (volume‐adjusted), the “GM ± SD urinary concentration” value is 0.07 ± 0.95 µg/L, the “Percentile 25th urinary concentration” value was “<PQL”, the “Percentile 50th urinary concentration” value is on record as “<PQL” and the “Percentile 75th urinary concentration” value was “<PQL”. In addition, in series [3] (volume‐adjusted), the “Percentile 95th urinary concentration” value amounted to 0.42 µg/L and the “Percentile 100th urinary concentration” value was found to be 7.30 µg/L. Further, in series [4], the “urinary excretion correction coefficient r” value is reported as 0.6.
In the case of `C/C(=N\C#N)NCc1ccc(Cl)nc1` [N‐dm‐acetamiprid, N‐desmethyl‐acetamiprid], in series [2], the “Maximum urinary neonicotinoid concentration” value is listed as 26.92 µg/g creatinine and the “Mean urinary neonicotinoid concentration” value is reported as 2.2 µg/g creatinine. Further, the “Mean urinary neonicotinoid concentration” value in series [3] (setting [5]) turned out to be 2.48 µg/g creatinine. In series [3] (creatinine‐adjusted), the “GM ± SD urinary concentration” value is given as 0.16 ± 10.78 μg/g creatinine, the “Percentile 25th urinary concentration” value is listed as “<PQL”, the “Percentile 50th urinary concentration” value was “<PQL” and the “Percentile 75th urinary concentration” value was 0.35 µg/g creatinine. In series [3] (creatinine‐adjusted), the “Percentile 95th urinary concentration” value is listed as 8.28 µg/g creatinine and the “Percentile 100th urinary concentration” value turned out to be 76.56 µg/g creatinine. In addition, in series [3] (volume‐adjusted), the “GM ± SD urinary concentration” value came to 0.11 ± 9.33 µg/L, the “Percentile 25th urinary concentration” value is “<PQL”, the “Percentile 50th urinary concentration” value is listed as “<PQL” and the “Percentile 75th urinary concentration” value is recorded as 0.22 µg/L. Besides, in series [3] (volume‐adjusted), the “Percentile 95th urinary concentration” value is 3.28 µg/L and the “Percentile 100th urinary concentration” value stood at 71.28 µg/L.
Take `CN/C(=N/CC1CCOC1)N[N+](=O)[O-]` (stereo not drawn) [Dinotefuran, dinotefuran]: in series [2], the “Maximum urinary neonicotinoid concentration” value is given as 9.49 µg/g creatinine and the “Mean urinary neonicotinoid concentration” value was 0.57 µg/g creatinine. In series [3] (setting [5]), the “Mean urinary neonicotinoid concentration” value turned out to be 0.74 µg/g creatinine. In series [3] (creatinine‐adjusted), the “GM ± SD urinary concentration” value was 0.37 ± 1.64 μg/g creatinine, the “Percentile 25th urinary concentration” value was “<PQL”, the “Percentile 50th urinary concentration” value is recorded as “<PQL” and the “Percentile 75th urinary concentration” value is listed as “<PQL”. Besides, in series [3] (creatinine‐adjusted), the “Percentile 95th urinary concentration” value came to 1.38 µg/g creatinine and the “Percentile 100th urinary concentration” value amounted to 10.28 µg/g creatinine. Also, in series [3] (volume‐adjusted), the “GM ± SD urinary concentration” value came out at 0.25 ± 0.76 µg/L, the “Percentile 25th urinary concentration” value is “<PQL”, the “Percentile 50th urinary concentration” value is recorded as “<PQL” and the “Percentile 75th urinary concentration” value is “<PQL”. Also, in series [3] (volume‐adjusted), the “Percentile 95th urinary concentration” value is 1.11 µg/L and the “Percentile 100th urinary concentration” value is recorded as 5.67 µg/L. The “urinary excretion correction coefficient r” value in series [4] is on record as 0.899.
`O=[N+]([O-])NC1=NCCN1Cc1ccc(Cl)nc1` [Imidacloprid, imidacloprid]: in series [2], the “Maximum urinary neonicotinoid concentration” value is 1.59 µg/g creatinine and the “Mean urinary neonicotinoid concentration” value is 0.13 µg/g creatinine. In addition, in series [3] (setting [5]), the “Mean urinary neonicotinoid concentration” value was determined as 0.23 µg/g creatinine. Besides, in series [3] (creatinine‐adjusted), the “GM ± SD urinary concentration” value came out at 0.08 ± 0.75 μg/g creatinine, the “Percentile 25th urinary concentration” value is given as “<PQL”, the “Percentile 50th urinary concentration” value is recorded as “<PQL” and the “Percentile 75th urinary concentration” value was “<PQL”. For the same molecule, in series [3] (creatinine‐adjusted), the “Percentile 95th urinary concentration” value is listed as 0.43 µg/g creatinine and the “Percentile 100th urinary concentration” value is reported as 5.76 µg/g creatinine. Also, in series [3] (volume‐adjusted), the “GM ± SD urinary concentration” value came to 0.06 ± 0.20 µg/L, the “Percentile 25th urinary concentration” value is recorded as “<PQL”, the “Percentile 50th urinary concentration” value is recorded as “<PQL” and the “Percentile 75th urinary concentration” value is reported as “<PQL”. Further, in series [3] (volume‐adjusted), the “Percentile 95th urinary concentration” value was determined as 0.36 µg/L and the “Percentile 100th urinary concentration” value came out at 1.45 µg/L. Moreover, in series [4], the “urinary excretion correction coefficient r” value is given as 0.133.
With `C/C(=N\C#N)N(C)Cc1ccc(Cl)nc1` [Acetamiprid, acetamiprid], in series [2], the “Maximum urinary neonicotinoid concentration” value was 1.03 µg/g creatinine and the “Mean urinary neonicotinoid concentration” value is reported as 0.043 µg/g creatinine. In addition, the “Mean urinary neonicotinoid concentration” value in series [3] (setting [5]) is on record as 0.28 µg/g creatinine. Besides, in series [3] (creatinine‐adjusted), the “GM ± SD urinary concentration” value was 0.10 ± 0.74 μg/g creatinine, the “Percentile 25th urinary concentration” value is “<PQL”, the “Percentile 50th urinary concentration” value is on record as “<PQL” and the “Percentile 75th urinary concentration” value is 0.25 µg/g creatinine. Also, in series [3] (creatinine‐adjusted), the “Percentile 95th urinary concentration” value worked out at 0.79 µg/g creatinine and the “Percentile 100th urinary concentration” value was 5.61 µg/g creatinine. In addition, in series [3] (volume‐adjusted), the “GM ± SD urinary concentration” value was 0.07 ± 0.20 µg/L, the “Percentile 25th urinary concentration” value is “<PQL”, the “Percentile 50th urinary concentration” value is given as “<PQL” and the “Percentile 75th urinary concentration” value was found to be 0.23 µg/L. Also, in series [3] (volume‐adjusted), the “Percentile 95th urinary concentration” value came out at 0.33 µg/L and the “Percentile 100th urinary concentration” value was found to be 1.29 µg/L. For the same molecule, the “urinary excretion correction coefficient r” value in series [4] was 0.586.
For the molecule `N#C/N=C1\SCCN1Cc1ccc(Cl)nc1` [Thiacloprid, thiacloprid], in series [2], the “Maximum urinary neonicotinoid concentration” value is given as 0.2 µg/g creatinine and the “Mean urinary neonicotinoid concentration” value is given as 0.03 µg/g creatinine. The “Mean urinary neonicotinoid concentration” value in series [3] (setting [5]) is recorded as 0.09 µg/g creatinine. Further, in series [3] (creatinine‐adjusted), the “GM ± SD urinary concentration” value is listed as 0.03 ± 0.44 μg/g creatinine, the “Percentile 25th urinary concentration” value was “<PQL”, the “Percentile 50th urinary concentration” value was “<PQL” and the “Percentile 75th urinary concentration” value is reported as “<PQL”. Also, in series [3] (creatinine‐adjusted), the “Percentile 95th urinary concentration” value was “<PQL” and the “Percentile 100th urinary concentration” value is 3.41 µg/g creatinine. In addition, in series [3] (volume‐adjusted), the “GM ± SD urinary concentration” value stood at 0.02 ± 0.04 µg/L, the “Percentile 25th urinary concentration” value is given as “<PQL”, the “Percentile 50th urinary concentration” value is “<PQL” and the “Percentile 75th urinary concentration” value is “<PQL”. Moreover, in series [3] (volume‐adjusted), the “Percentile 95th urinary concentration” value was “<PQL” and the “Percentile 100th urinary concentration” value is on record as 0.32 µg/L. Further, the “urinary excretion correction coefficient r” value in series [4] is given as 0.05.
